Experiment: Compound was tested for calcium mobilization using rat basophilic leukemia cells at concentration of 5 mM
Assay type: functional, cell-based
Conditions: RBL-1

O=P(O)(O)C[C@@H]1[C@@H](O)[C@H](O)[C@H](O)[C@H](O)[C@H]1CP(=O)(O)O gave an EC50 of 70 µM.

From ChEMBL document CHEMBL1150482, “Synthesis of the 4,5 diphosphonate analog of D,L-myo-inositol 4,5-diphosphate” (Bioorg Med Chem Lett, 1993)
